In patent publication US10774071B2, “PD-1/PD-L1 inhibitors” (Gilead Sciences, Inc., priority 2018, dated 2020):
Like-named read-outs stand apart in the source and are kept apart here.

Columns and labels:
PD-1/PD-L1 = PD-1/PD-L1 (Homo sapiens (Human), UniProt Q9NZQ7); test: PD-1/PD-L1 biochemical protein-protein interaction assay (ALPHA); type: binding; settings: read-out: IC50 PD-L1-PD1
PD-L1 = PD-L1 (Homo sapiens (Human), UniProt Q9NZQ7); test: PD-L1/PD-L1 dimerization biochemical protein-protein interaction assay (ALPHA); type: binding; settings: read-out: AC50 PDL1 Dimer 1 nM
Chain of PD-L1 (Q9NZQ7 19-238): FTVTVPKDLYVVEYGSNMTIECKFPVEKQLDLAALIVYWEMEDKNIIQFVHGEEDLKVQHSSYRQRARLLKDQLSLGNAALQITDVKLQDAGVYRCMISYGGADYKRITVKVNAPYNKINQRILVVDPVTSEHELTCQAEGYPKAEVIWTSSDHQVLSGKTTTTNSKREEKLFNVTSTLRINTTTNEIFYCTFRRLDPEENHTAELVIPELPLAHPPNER
Chain of PD-L1 (Q9NZQ7 19-238): as above

[1] = 0.3 nM His tagged PD-L1, 2.5 nM biotinylated Fc-PD-1, Table 3B
[2] = 0.5 nM His tagged PD-L1 and 0.5 nM FLAG tagged PD-L1, Table 4B
[3] = 0.3 nM His tagged PD-L1, 2.5 nM biotinylated Fc-PD-1, readings of 0.064 nM are equal to or less than 0.064 nM
[4] = 0.5 nM His tagged PD-L1 and 0.5 nM FLAG tagged PD-L1, Table 4A

Chain of PD-1/PD-L1 (Q9NZQ7 19-238): as above

| SMILES | IC50 (PD-1/PD-L1; [1]) [nM] | AC50 (PD-L1; [2]) [nM] | IC50 (PD-1/PD-L1; [3]) [nM] | AC50 (PD-L1; [4]) [nM] |
| --- | --- | --- | --- | --- |
| COc1nc(-c2cccc(-c3cccc4c3CC[C@@H]4Oc3nc(OC)c(CN4CC[C@@H](C(=O)O)C4)cc3Cl)c2Cl)ccc1CN1CC(C)(O)C1 [B-85] | 0.064 | 50.3 | – | – |
| COc1cc(-c2cccc(-c3cccc4c3CC[C@@H]4Oc3nc(OC)c(CN4CC(C(=O)O)C4)cc3Cl)c2Cl)cc(F)c1CNC[C@@H]1CCC(=O)N1 [B-130] | 0.064 | 4.87 | – | – |
| COc1nc(-c2cccc(-c3cccc4c3CC[C@@H]4Oc3nc(OC)c(CN4CC[C@@H](C(=O)O)C4)nc3C)c2Cl)ccc1CNC[C@@H]1CCC(=O)N1 [B-150] | 0.064 | 65.1 | – | – |
| COc1nc(O[C@H]2CCc3c(-c4cccc(-c5ccc(CNC[C@@H]6CCC(=O)N6)c(OCC#N)n5)c4Cl)cccc32)c(Cl)cc1CNC1(C(=O)O)CC1 [B-14] | 0.064 | 15.7 | – | – |
| COc1nc(-c2cccc(-c3cc(F)cc4c3CC[C@@H]4Oc3nc(OC)c(CN4CC[C@@H](C(=O)O)C4)cc3C(F)(F)F)c2Cl)ccc1CNC[C@@H]1CCC(=O)N1 [B-217] | 0.064 | 28.9 | – | – |
| COc1nc(-c2cccc(-c3cccc4c3CC[C@@H]4Oc3nc(OC)c(CNC4(C(=O)O)CC4)nc3C(F)(F)F)c2Cl)ccc1CNC[C@@H]1CCC(=O)N1 [B-247] | 0.064 | 10.4 | – | – |
| COc1nc(-c2cccc(-c3cccc4c3CC[C@@H]4Nc3nc(OC)c(CN4C[C@H](C)C[C@H]4C(=O)O)cc3C(F)(F)F)c2Cl)ccc1CNC[C@@H]1CCC(=O)N1 [A-78] | – | – | ≤ 0.064 | 13.5 |
| COc1nc(-c2cccc(-c3cccc4c3CC[C@@H]4Nc3nc(OC)c(CN[C@H](C(=O)O)C4CC4)nc3C(F)(F)F)c2Cl)ccc1CN[C@H]1C[C@](C)(O)C1 [A-94] | – | – | ≤ 0.064 | 20.7 |
| COc1nc(-c2cccc(-c3cccc4c3CC[C@@H]4Oc3nc(OC)c(CNC4(C(=O)O)CC4)cc3C(F)(F)F)c2Cl)ccc1CN1CC2(CCC(=O)N2)C1 [B-170] | 0.064 | 15.2 | – | – |
| COc1nc(-c2cccc(-c3cccc4c3CC[C@@H]4Oc3nc(OC)c(CN4CC5CCC4(C(=O)O)CC5)cc3Cl)c2Cl)ccc1CNC[C@@H]1CCC(=O)N1 [B-231] | 0.064 | 12 | – | – |
| COc1nc(-c2cccc(-c3cccc4c3CC[C@@H]4Oc3nc(OC)c(CN4CC[C@@H]5C[C@@]54C(=O)O)cc3C(F)(F)F)c2Cl)ccc1CN[C@H]1C[C@](C)(O)C1 [B-3] | 0.066 | 120 | – | – |
| COc1cc(-c2cccc(-c3cccc4c3CC[C@@H]4Nc3nc(OC)c(CN4CC[C@@H](C(=O)O)C4)nc3C(F)(F)F)c2Cl)cc(F)c1CNC[C@@H]1CCC(=O)N1 [A-31] | – | – | ≤ 0.064 | 6.84 |
| COc1nc(-c2cccc(-c3cccc4c3CC[C@@H]4Oc3nc(OC)c(CN4CC[C@@H](C(=O)N=S(C)(N)=O)C4)cc3Cl)c2Cl)ccc1CNC[C@@H]1CCC(=O)N1 (stereo partly drawn) [B-164] | 0.27 | 66.9 | – | – |
| COc1nc(-c2cccc(-c3cccc4c3CC[C@@H]4Nc3nc(OC)c(CN4CCC5CC4(C(=O)O)C5)nc3C(F)(F)F)c2Cl)ccc1CNC[C@@H]1CCC(=O)N1 [A-70] | – | – | ≤ 0.064 | 15.6 |
| COc1nc(-c2cccc(-c3cccc4c3CC[C@@H]4Oc3nc(OC)c(CN4CCC[C@]4(C)C(=O)O)cc3C)c2Cl)ccc1CNC[C@@H]1CCC(=O)N1 [B-238] | 0.064 | 34.9 | – | – |
| COc1nc(O[C@H]2CCc3c(-c4cccc(-c5ccc(CNC[C@@H]6CCC(=O)N6)c(OCC#N)n5)c4Cl)cccc32)c(C(F)(F)F)cc1CN1CC[C@@H](C(=O)O)C1 [B-127] | 0.064 | 5.46 | – | – |
| COc1nc(N[C@H]2CCc3c(-c4cccc(-c5ccc(CNC[C@@H]6CCC(=O)N6)c(OCC#N)n5)c4Cl)cccc32)c(C(F)(F)F)nc1CN1CC[C@@](C)(C(=O)O)C1 [A-26] | – | – | ≤ 0.064 | 13.4 |
| COc1nc(-c2cccc(-c3cccc4c3CC[C@@H]4Oc3nc(OC)c(CN4CCN(C)C(C(=O)O)C4)cc3Cl)c2Cl)ccc1CNC[C@@H]1CCC(=O)N1 (stereo partly drawn) [B-82] | 0.064 | 37.8 | – | – |
| COc1nc(-c2cccc(-c3cccc4c3CC[C@@H]4Nc3nc(OC)c(CN(C)CC(=O)O)cc3C(F)(F)F)c2Cl)ccc1CNC[C@@H]1CCC(=O)N1 [A-35] | – | – | ≤ 0.064 | 13.2 |
| CNC(=O)CNCc1cc(C(F)(F)F)c(O[C@H]2CCc3c(-c4cccc(-c5ccc(CNC[C@@H]6CCC(=O)N6)c(OC)n5)c4Cl)cccc32)nc1OC [B-250] | 0.237 | 36.4 | – | – |
| COc1nc(-c2cccc(-c3cccc4c3CC[C@@H]4Oc3nc(OC)c(CN4C[C@@H]5CCC[C@]5(C(=O)O)C4)cc3Cl)c2Cl)ccc1CNC[C@@H]1CCC(=O)N1 [B-92] | 0.064 | 54.5 | – | – |
| COc1nc(-c2cccc(-c3cccc4c3CC[C@@H]4Nc3nc(OC)c(CN4C[C@@H]5CC[C@H]4[C@@H]5C(=O)O)nc3C(F)(F)F)c2Cl)ccc1CNC[C@@H]1CCC(=O)N1 [A-80] | – | – | ≤ 0.064 | 19.9 |

Continued, values first:

| IC50 (PD-1/PD-L1; [1]) [nM] | AC50 (PD-L1; [2]) [nM] | IC50 (PD-1/PD-L1; [3]) [nM] | AC50 (PD-L1; [4]) [nM] | SMILES |
| --- | --- | --- | --- | --- |
| – | – | ≤ 0.064 | 14.7 | COc1nc(-c2cccc(-c3cccc4c3CC[C@@H]4Nc3nc(OC)c(CNCC(=O)O)cc3C(F)(F)F)c2Cl)ccc1CNC[C@@H]1CCC(=O)N1 [A-65] |
| 0.064 | 2.56 | – | – | COc1cc(O[C@H]2CCc3c(-c4cccc(-c5ccc(CNC[C@@H]6CCC(=O)N6)c(OC)n5)c4Cl)cccc32)c(C(F)(F)F)cc1CNC(C)(C)C(=O)O [B-219] |
| 0.064 | 5.83 | – | – | COc1cc(-c2cccc(-c3cccc4c3CC[C@@H]4Oc3nc(OC)c(CN4CC(C)(C(=O)O)C4)cc3C(F)(F)F)c2Cl)ccc1CNC[C@@H]1CCC(=O)N1 [B-141] |
| – | – | ≤ 0.064 | 9.38 | COc1nc(-c2cccc(-c3cccc4c3CC[C@@H]4Nc3nc(OC)c(CN4CCC5CC4(C(=O)O)C5)cc3C(F)(F)F)c2Cl)ccc1CN[C@H]1C[C@](C)(O)C1 [A-58] |
| – | – | 1.66 | 150 | COc1nc(-c2cccc(-c3cccc4c3CC[C@@H]4Nc3nc(OC)c(CNC[C@@H]4CCC(=O)N4)cc3Cl)c2Cl)ccc1CNC[C@@H]1CCC(=O)N1 [A-9] |
| 0.064 | 28 | – | – | COc1nc(-c2cccc(-c3cccc4c3CC[C@@H]4Oc3nc(OC)c(CN4CC[C@@H](C(=O)O)C4)nc3Br)c2Cl)cnc1CNC[C@@H]1CCC(=O)N1 [B-37] |
| 0.158 | 58.3 | – | – | COc1nc(-c2cccc(-c3cccc4c3CC[C@@H]4Oc3nc(OCc4cc(F)cc(C#N)c4)c(CN4CC5(C(=O)O)CCC4CC5)cc3Cl)c2Cl)ccc1CNC[C@@H]1CCC(=O)N1 [B-30] |
| – | – | ≤ 0.064 | 21.2 | COc1nc(-c2cccc(-c3cccc4c3CC[C@@H]4Nc3nc(OC)c(CNC(C)(C)C(=O)O)nc3C(F)(F)F)c2Cl)ccc1CN[C@H]1C[C@](C)(O)C1 [A-95] |
| 0.064 | 12.3 | – | – | COc1nc(O[C@H]2CCc3c(-c4cccc(-c5cc(F)c(CNC[C@@H]6CCC(=O)N6)c(OC)n5)c4Cl)cccc32)c(C(F)(F)F)cc1CN1CC[C@@H](C(=O)O)C1 [B-191] |
| 0.064 | 41.3 | – | – | COc1nc(-c2cccc(-c3cccc4c3CC[C@@H]4Oc3nc(OC)c(CN4C[C@H](C(=O)O)[C@@H](C)C4)cc3Cl)c2Cl)ccc1CNC[C@@H]1CCC(=O)N1 [B-106] |
| 0.064 | 19.4 | – | – | COc1nc(-c2cccc(-c3cccc4c3CC[C@@H]4Oc3nc(OC)c(CN4CC5(CC(C(=O)O)C5)C4)cc3Cl)c2Cl)ccc1CNC[C@@H]1CCC(=O)N1 [B-24] |
| 0.064 | 25.1 | – | – | COc1nc(-c2cccc(-c3cccc4c3CC[C@@H]4Oc3nc(OC)c(CN4CCC(C)(C)[C@H]4C(=O)O)cc3Cl)c2Cl)ccc1CNC[C@@H]1CCC(=O)N1 [B-183] |
| 0.235 | 109 | – | – | CNC(=O)C1CCN(Cc2cc(Cl)c(O[C@H]3CCc4c(-c5cccc(-c6ccc(CN7CC(C)(O)C7)c(OC)n6)c5Cl)cccc43)nc2OC)C1 (stereo partly drawn) [B-86] |
| 0.266 | 301 | – | – | COc1nc(O[C@H]2CCc3c(-c4cccc(-c5cc(C)c(CN6C[C@@H]7C[C@]7(C(=O)O)C6)c(OC)n5)c4Cl)cccc32)c(Cl)cc1CNC[C@@H]1CCC(=O)N1 [B-132] |
| 0.064 | 17.9 | – | – | COc1nc(-c2cccc(-c3cccc4c3CC[C@@H]4Oc3nc(OC)c(CN4CC(C(=O)O)C4)nc3Cl)c2Cl)cnc1CNC[C@@H]1CCC(=O)N1 [B-44] |
| 0.064 | 24.4 | – | – | COc1nc(-c2cccc(-c3cccc4c3CC[C@@H]4Oc3nc(OC4CC4)c(CNC4(C(=O)O)CC4)cc3Cl)c2Cl)ccc1CNC[C@@H]1CCC(=O)N1 [B-201] |
| 0.111 | 22.3 | – | – | COc1nc(O[C@H]2CCc3c(-c4cccc(-c5cnc(CNC[C@@H]6CCC(=O)N6)c(OC)n5)c4Cl)cccc32)c(Cl)cc1CNC1CC(NC(C)=O)C1 (stereo partly drawn) [B-34] |
| 0.064 | 14.3 | – | – | COc1nc(-c2cccc(-c3cccc4c3CC[C@@H]4Oc3nc(OC)c(CN4C[C@@H](C)[C@H]4C(=O)O)cc3Cl)c2Cl)ccc1CNC[C@@H]1CCC(=O)N1 [B-175] |
| – | – | ≤ 0.064 | 40.2 | COc1nc(-c2cccc(-c3cccc4c3CC[C@@H]4Nc3nc(OC)c(CNCC(N)=O)nc3C(F)(F)F)c2Cl)ccc1CNC[C@@H]1CCC(=O)N1 [A-103] |
| 0.064 | 17.5 | – | – | COc1cc(O[C@H]2CCc3c(-c4cccc(-c5ccc(CNC[C@@H]6CCC(=O)N6)c(OC)n5)c4Cl)cccc32)c(C(F)(F)F)cc1CNCC(C)(C)C(=O)O [B-221] |
| 0.064 | 15.2 | – | – | COc1nc(-c2cccc(-c3cccc4c3CC[C@@H]4Oc3nc(OC)c(CNC4(C(=O)O)CC4)cc3C(F)(F)F)c2Cl)ccc1CN1CC(C)(O)C1 [B-171] |
| 0.064 | 3.64 | – | – | CCN(CC(=O)O)Cc1cc(C(F)(F)F)c(O[C@H]2CCc3c(-c4cccc(-c5cc(F)c(CNC[C@@H]6CCC(=O)N6)c(OC)c5)c4Cl)cccc32)nc1OC [B-179] |
| 0.387 | 85 | – | – | CNC(=O)CCNCc1ccc(-c2cccc(-c3cccc4c3CC[C@@H]4Oc3nc(OC)c(CNCCC(=O)NC)cc3Cl)c2Cl)nc1OC [B-89] |
